For this test, the system named is Jurkat cells cytotoxicity, ATP luminescence. Nature of the test: Jurkat cell viability loss, dose response – luminescence, human T lymphocytes, Round001, cytotoxicity control for T. brucei MetRS inhibitor project, late-stage follow-up (AID 743155).

Active and inactive are the calls of the source. How the calls were made is not given here. Bounds are passed on as bounds.

A word on the IC50: it is the midpoint of a concentration-inhibition curve. With `COc1ccccc1NC(=O)Cn1cc(C(=O)C(=O)N2CCOCC2)c2ccccc21`, the IC50 was > 83.3 µM (inactive).
For `CC(=O)c1cn(CC(=O)Nc2cccc(C(F)(F)F)c2)c2ccccc12` the value was > 27.8 µM (inactive); for `Cc1ccc2[nH]c3nc(SCC(=O)Nc4ccc(C(F)(F)F)cc4)nnc3c2c1`, > 83.3 µM (inactive); for `CC(=O)N(CCc1ccccc1)C1CC(=O)N(c2ccc(Br)cc2)C1=O` (centres undefined), > 27.8 µM (inactive).
For `Cc1cc2cc(C(=O)N3CCCC(c4nc5ccccc5[nH]4)C3)ccc2o1` (centres undefined), the IC50 was > 27.8 µM (inactive).
For `Cc1ccc(C(=O)NCCc2nc3ccccc3[nH]2)cc1[N+](=O)[O-]`, the IC50 is > 27.8 µM (inactive).
Next, `O=C(NCCc1nc2ccccc2[nH]1)c1ccc(Cl)cc1`: > 27.8 µM (inactive); `Cc1cccc2[nH]c(CCN(C)C(=O)c3cccc(C4CCNC4)c3)nc12` (centres undefined): > 83.3 µM (inactive).
With `COc1ccccc1NC(=O)CSc1nnc2c(n1)[nH]c1ccc(C)cc12`, the IC50 is 47.1 µM (inactive).
Next, `O=C(CSc1nnc2c(n1)[nH]c1ccc(Br)cc12)NCc1ccccc1`: > 27.8 µM (inactive); `Cc1cccc(C(=O)NCCc2nc3ccccc3n2CCOc2ccccc2)c1`: > 27.8 µM (inactive); `CC(C)c1nc2ccc(C(=O)N(C)CCc3nc4ccc(F)cc4[nH]3)cc2o1`: > 83.3 µM (inactive).
For `COc1ccc(NC(=O)C2CC(=O)n3c(nc4ccccc43)N2)cc1` (centres undefined) the value was > 83.3 µM (inactive); for `CCN(CC)C(=O)C(=O)c1cn(CC(=O)N(CC)c2ccccc2)c2ccccc12`, > 27.8 µM (inactive).
Take `O=C(NCCc1nc2ccccc2[nH]1)c1c(F)cccc1F`: the IC50 was > 83.3 µM (inactive).
Next, `O=C(NCCc1nc2ccccc2[nH]1)c1ccc(Cl)c(Cl)c1`: > 83.3 µM (inactive); `Cn1c(CCNC(=O)c2ccc(Cl)cc2)nc2ccccc21`: > 27.8 µM (inactive).
Regarding `CCN(CC)C(=O)C(=O)c1cn(CC(=O)N2CCCc3ccccc32)c2ccccc12`, the IC50 was > 83.3 µM (inactive).
Next, `COc1ccc(NC(=O)CSc2nnc3c4cc(C)ccc4n(C)c3n2)cc1`: > 83.3 µM (inactive); `CCc1ccc2c(c1)c1nnc(SCC(=O)Nc3ccc4c(c3)OCO4)nc1n2C`: 81.1 µM (inactive); `O=C(Cn1cc(C(=O)C(=O)N2CCOCC2)c2ccccc21)NCC1CCCO1` (centres undefined): > 83.3 µM (inactive).
Next, `O=C(NCCc1nc2ccccc2[nH]1)c1ccc(Cl)cc1Cl`: > 27.8 µM (inactive); `CC1Cc2ccccc2N1C(=O)Cn1cc(C(=O)C(=O)N2CCOCC2)c2ccccc21` (centres undefined): > 83.3 µM (inactive); `Cc1cccc(NC(=O)C2CC(=O)n3c(nc4ccccc43)N2)c1` (centres undefined): > 27.8 µM (inactive).
For `COc1ccc(CCN(C(=O)c2cccc(F)c2)C2CC(=O)N(c3ccc(Br)cc3)C2=O)cc1` (centres undefined), the IC50 is > 83.3 µM (inactive).
Turning to `CCC(=O)c1cn(CC(=O)Nc2cccc(C(F)(F)F)c2)c2ccccc12`, the IC50 is > 27.8 µM (inactive).
Next, `COc1cccc(NC(=O)C2CC(=O)n3c(nc4ccccc43)N2)c1` (centres undefined): > 83.3 µM (inactive).
Take `O=C(Cn1cc(C(=O)c2ccccc2)c2ccccc21)Nc1cccc(C(F)(F)F)c1`: the IC50 is 55.5 µM (inactive).
Turning to `CCN(CC)C(=O)C(=O)c1cn(CC(=O)Nc2ccccc2OC)c2ccccc12`, the IC50 is > 83.3 µM (inactive).
`CCN(CC)C(=O)C(=O)c1cn(CC(=O)Nc2cccc(C(F)(F)F)c2)c2ccccc12`: the IC50 is 38 µM (inactive).
Next, `O=C(Cn1cc(C(=O)C(=O)N2CCCC2)c2ccccc21)Nc1ccccc1`: > 83.3 µM (inactive); `O=C(Cn1cc(C(=O)C2CC2)c2ccccc21)Nc1cccc(C(F)(F)F)c1`: > 27.8 µM (inactive); `O=C(Cn1cc(C(=O)COc2ccccc2)c2ccccc21)Nc1cccc(C(F)(F)F)c1`: > 27.8 µM (inactive).
With `COc1ccc(CCN(C(=S)Nc2ccccc2)C2CC(=O)N(c3ccc(Cl)cc3)C2=O)cc1` (centres undefined), the IC50 was 27.2 µM (inactive).
Turning to `CC(=O)N(CCc1ccccc1)C1CC(=O)N(c2ccc(Cl)cc2)C1=O` (centres undefined), the IC50 is > 27.8 µM (inactive).
With `Cc1cccc2[nH]c(C3CCCN(C(=O)c4cccc5cccnc45)C3)nc12` (centres undefined), the IC50 was > 27.8 µM (inactive).
For `CCc1ccc2[nH]c3nc(SCC(=O)NCc4cccc(OC)c4)nnc3c2c1` the value was > 27.8 µM (inactive).
For `O=C(Cn1cc(C(=O)C(=O)N2CCOCC2)c2ccccc21)NCc1ccccc1` the value was > 83.3 µM (inactive).
Next, `O=C(CSC1CC(=O)N(c2cccc(Cl)c2)C1=O)Nc1ccc(Br)cc1` (centres undefined): > 27.8 µM (inactive).
Take `O=C(Cn1cc(C(=O)c2ccco2)c2ccccc21)Nc1cccc(C(F)(F)F)c1`: the IC50 was 74 µM (inactive).
For `CCN(C(=O)Cn1cc(C(=O)C(=O)N2CCOCC2)c2ccccc21)c1ccccc1` the value was > 83.3 µM (inactive); for `CNC(=S)N(CCc1ccccc1)C1CC(=O)N(c2ccc(Br)cc2)C1=O` (centres undefined), > 27.8 µM (inactive); for `O=C1CC(NCCc2ccccc2)C(=O)N1c1ccc(Br)cc1` (centres undefined), > 83.3 µM (inactive).
On to `CCN(CCc1nc2ccc(C)cc2[nH]1)C(=O)c1ccc2ncccc2c1`, for which the IC50 is > 83.3 µM (inactive).
For `CCCCn1c(CCNC(=O)c2ccc(F)cc2)nc2ccccc21` the value was > 27.8 µM (inactive); for `COCCc1nc2ccc(C(=O)NCCc3nc4ccc(OC)cc4[nH]3)cc2o1`, > 27.8 µM (inactive).
For `Cc1ccc(CNC(=O)CSc2nnc3c(n2)[nH]c2ccc(C)cc23)cc1` the value was > 27.8 µM (inactive); for `O=C(Nc1ccc(F)c(Cl)c1)C1CC(=O)n2c(nc3ccccc32)N1` (centres undefined), > 83.3 µM (inactive); for `CCN(CC)C(=O)C(=O)c1cn(CC(=O)Nc2cccc(OC)c2)c2ccccc12`, > 27.8 µM (inactive).

The values are drawn from PubChem BioAssay AID743155 (The Scripps Research Institute Molecular Screening Center, 2013).
